Data reported in PMC9657321, “Identification of Boronate-Containing Diarylpyrimidine Derivatives as Novel HIV-1 Non-Nucleoside Reverse Transcriptase Inhibitors” (Molecules, 2022).

Key:
[1] = test system: HIV-1 Y188L mutant strain; test: microbe, parasite or virus in culture; assay type: cell-based; details: for EC50: Human immunodeficiency virus 1, MT4, read-out: EC50 Y188L; for SI Y188L: ratio CC50/EC50, Y188L; for RF Y188L: ratio EC50 (resistant viral strain)/EC50 (wild-type viral strain)
Description: (§1) All data were calculated using the median optical density (OD) value of three wells.

[2] = test system: HIV-1 L100I mutant strain; test: microbe, parasite or virus in culture; assay type: cell-based; details: for EC50: Human immunodeficiency virus 1, MT4, read-out: EC50 L100I; for SI L100I: ratio CC50/EC50, L100I; for RF L100I: ratio EC50 (resistant viral strain)/EC50 (wild-type viral strain)
Description: as §1

[3] = test system: HIV-1 E138K mutant strain; test: microbe, parasite or virus in culture; assay type: cell-based; details: for EC50: Human immunodeficiency virus 1, MT4, read-out: EC50 E138K; for SI E138K: ratio CC50/EC50, E138K; for RF E138K: ratio EC50 (resistant viral strain)/EC50 (wild-type viral strain)
Description: as §1

[4] = test system: HIV-1 Y181C mutant strain; test: microbe, parasite or virus in culture; assay type: cell-based; details: for EC50: Human immunodeficiency virus 1, MT4, read-out: EC50 Y181C, MT-4 cells, Y181C, MTT method; for SI Y181C: ratio CC50/EC50, Y181C; for RF Y181C: ratio EC50 (resistant viral strain)/EC50 (wild-type viral strain)
Description: as §1

[5] = test system: HIV-1 F227L + V106A mutant strain; test: microbe, parasite or virus in culture; assay type: cell-based; details: for EC50: Human immunodeficiency virus 1, MT4, read-out: EC50 F227L + V106A; for SI F227L + V106A: ratio CC50/EC50, F227L + V106A; for RF F227L + V106A: ratio EC50 (resistant viral strain)/EC50 (wild-type viral strain)
Description: as §1

wild-type HIV-1 (IIIB) = test: microbe, parasite or virus in culture; assay type: cell-based; details: for EC50: Human immunodeficiency virus 1, MT4, MT-4 cells, HIV-1 IIIB, MTT method; for RF IIIB: ratio EC50(resistant strain)/EC50(wild-type strain); for SI IIIB: selectivity index, ratio CC50/EC50, IIIB
Description: as §1

[6] = test system: HIV-1 K103N mutant strain; test: microbe, parasite or virus in culture; assay type: cell-based; details: for EC50: Human immunodeficiency virus 1, MT4, read-out: EC50 K103N, MT-4 cells, K103N, MTT method; for SI K103N: ratio CC50/EC50, K103N; for RF K103N: ratio EC50 (resistant viral strain)/EC50 (wild-type viral strain)
Description: as §1

[7] = test system: HIV-1 double-mutant strain RES056 (K103N/Y181C); test: microbe, parasite or virus in culture; assay type: cell-based; details: for EC50: Human immunodeficiency virus 1, MT4, read-out: EC50 RES056; for RF RES056: ratio EC50(resistant strain)/EC50(wild-type strain); for SI RES056: selectivity index, ratio CC50/EC50, RES056
Description: as §1

[8] = Cytotoxicity in mock-infected MT-4 cells, MTT method; assay type: cell-based; details: human
Description: The 3-(4,5-dimethylthiazol-2-yl)-2,5-diphenyltetrazolium bromide (MTT) method was used to evaluate the antiviral activity and cytotoxicity of the synthesized compounds as previously described. At the beginning of each experiment, stock solutions (10× final concentration) of test compounds were added in 25 μL volumes to two series of triplicate wells for allowing the simultaneous evaluation of their effects on mock- and HIV-infected cells. The serial 5-fold dilutions of the compounds were made in flat-bottomed 96-well microtiter trays directly, including untreated control HIV-1 and mock infected cell samples for each sample using a Biomek 3000 robot (Beckman Instruments, Fullerton, CA, USA). HIV-1 (IIIB) and mutant HIV-1 strains (RES056, F227L/V106A, L100I, K103N, E138K, Y181C, and Y188L) stock (50 μL at 100–300 CCID50) (50% cell culture infectious dose) or culture medium was added to either the infected or mock-infected wells of the microtiter tray. Mock-infected cells were used to evaluate the effect on uninfected cells to assess the cytotoxicity of the test compounds. Exponentially growing MT-4 cells were centrifuged for […] at 1000 rpm (Eppendorf 5424, Hamburg, Germany) and then the supernatant was discarded. The MT-4 cells were resuspended at 6 × 10^5 cells/mL and 50 μL aliquots were transferred to the microtiter tray wells. At 5 days after infection, the viability of mock- and HIV-infected cells was determined spectrophotometrically by means of MTT assay.
(§2) The MTT assay is based on the reduction of yellow-colored MTT (Acros Organics, Geel, Belgium) by mitochondrial dehydrogenase of metabolically active cells to form a blue-purple formazan. The absorbances were read in an eight-channel computer-controlled photometer at the wavelengths of 540 and 690 nm. All data were calculated using the median optical density (OD) value of three wells.

[9] = target: T1, recombinant wild-type HIV-1 RT enzyme (Human immunodeficiency virus type 1 group M subtype B, UniProt P03366); test: HIV-1 RT inhibition assay (ELISA, Roche RT assay kit); assay type: biochemical
T1 construct: recombinant wild-type HIV-1 RT enzyme; purchased Roche (Basel, Switzerland)
Description: The HIV-1 RT inhibition assay was performed by using an RT assay kit produced by Roche (Basel, Switzerland).
The biotin-labeled dNTPs were incorporated into the cDNA chain in the presence of RT and bound to streptavidin. The washing buffer was used to wash the unbound dNTPs and add the anti-DIG-POD to the MTPs.
The peroxide substrate (ABST) solution was added to the MTPs, when the unbound anti-DIG-PODs were washed out. […] The absorbance of the sample was determined at OD405 nm using a microtiter plate ELISA reader. The percentage inhibitory activity of RT inhibitors was calculated according to the following formula: % inhibition = [O.D. value with RT but without inhibitors − O.D. value with RT and inhibitors]/[O.D. value with RT and inhibitors − O.D. value without RT and inhibitors].

[10] = test system: wild-type and mutant HIV-1 strains; test: Anti-HIV-1 activity in MT-4 cells, MTT method, panel of strains (range over strains); assay type: cell-based; details: Human immunodeficiency virus 1, MT4, read-out: EC50 values over wild-type and a panel of single mutations
Description: […]. […] […].
The 3-(4,5-dimethylthiazol-2-yl)-2,5-diphenyltetrazolium bromide (MTT) method was used to evaluate the antiviral activity and cytotoxicity of the synthesized compounds as previously described. At the beginning of each experiment, stock solutions (10× final concentration) of test compounds were added in 25 μL volumes to two series of triplicate wells for allowing the simultaneous evaluation of their effects on mock- and HIV-infected cells. The serial 5-fold dilutions of the compounds were made in flat-bottomed 96-well microtiter trays directly, including untreated control HIV-1 and mock infected cell samples for each sample using a Biomek 3000 robot (Beckman Instruments, Fullerton, CA, USA). […] At 5 days after infection, the viability of mock- and HIV-infected cells was determined spectrophotometrically by means of MTT assay.
as §2

Row | SMILES | EC50 [1] | SI Y188L [1] | RF Y188L [1] | EC50 [2] | SI L100I [2] | RF L100I [2] | EC50 [3] | SI E138K [3] | RF E138K [3] | RF Y181C [4] | EC50 [5] | RF F227L + V106A [5] | EC50 (wild-type HIV-1 (IIIB)) | RF IIIB (wild-type HIV-1 (IIIB)) | EC50 [6] | RF K103N [6] | EC50 [7] | RF RES056 [7] | CC50 at 5 days [8] | IC50 [9] | also measured
1 | Cc1cc(C#N)cc(C)c1Oc1nc(Nc2ccc(B3OC(C)(C)C(C)(C)O3)cc2)nc2c1COC2 [Compound 3c, 3,5-Dimethyl-4-((2-((4-(4,4,5,5-tetramethyl-1,3,2-dioxaborolan-2-yl)phenyl)amino) -5,7-dihydrofuro [3,4-d]pyrimidin-4-yl)oxy)benzonitrile] | 4520 ± 1540 nM | 21 | 87.9 | 2430 ± 302 nM | 39 | 47.3 | 130 ± 41 nM | 731 | 2.5 | 85.1 | 9100 ± 2640 nM | 177.2 | 51 ± 15 nM | 1.0 | 120 ± 19 nM | 2.3 | 25800 ± 7930 nM | 503 | 94800 ± 32200 nM | 228 ± 45 nM | EC50 [4]: 4370 ± 2190 nM; SI Y181C [4]: 22; SI F227L + V106A [5]: 10; SI IIIB (wild-type HIV-1 (IIIB)): 1847; SI K103N [6]: 792; SI RES056 [7]: < 1; melting point: 149 to 151 °C
2 | Cc1cc(/C=C/C#N)cc(C)c1Oc1nc(Nc2ccc(B3OC(C)(C)C(C)(C)O3)cc2)nc2sccc12 [Compound 4b, (E)-3-(3,5-Dimethyl-4-((2-((4-(4,4,5,5-tetramethyl-1,3,2-dioxaborolan-2-yl)phenyl)amino)thieno [2,3-d]pyrimidin-4-yl)oxy)phenyl)acrylonitrile] | 2520 ± 238 nM | 9 | 246.1 | 280 ± 55 nM | 79 | 27.4 | 30 ± 9 nM | 732 | 3.0 | 65.9 | 3210 ± 1970 nM | 313.5 | 10 ± 3 nM | 1.0 | 8 ± 2 nM | 0.8 | 2300 ± 660 nM | 224 | 22100 ± 3690 nM | 47 ± 1 nM | EC50 [4]: 675 ± 188 nM; SI Y181C [4]: 33; SI F227L + V106A [5]: 7; SI IIIB (wild-type HIV-1 (IIIB)): 2161; SI K103N [6]: 2866; fold more potent than 3b ([7]; RES056 EC50, versus 3b): 75 fold; SI RES056 [7]: 10
3 | Cc1cc(C#N)cc(C)c1Oc1nc(Nc2ccc(B3OC(C)(C)C(C)(C)O3)cc2)nc2ccsc12 [Compound 3a, 3,5-Dimethyl-4-((2-((4-(4,4,5,5-tetramethyl-1,3,2-dioxaborolan-2-yl)phenyl)amino)thieno [3,2-d]pyrimidin-4-yl)oxy)benzonitrile] | 6020 ± 3140 nM | – | 94.7 | 2510 ± 155 nM | – | 39.4 | 193 ± 77 nM | – | 3.0 | 98.8 | 4950 ± 1980 nM | 77.8 | 64 ± 21 nM | 1.0 | 81 ± 8 nM | 1.3 | > 27400 nM | > 431 | 27400 ± 1200 nM | 354 ± 43 nM | EC50 [4]: 6290 ± 3270 nM
4 | Cc1cc(/C=C/C#N)cc(C)c1Oc1nc(Nc2ccc(B3OC(C)(C)C(C)(C)O3)cc2)nc2c1COC2 [Compound 4c, (E)-3-(3,5-Dimethyl-4-((2-((4-(4,4,5,5-tetramethyl-1,3,2-dioxaborolan-2-yl)phenyl)amino)-5,7-dihydrofuro [3,4-d]pyrimidin-4-yl)oxy)phenyl)acrylonitrile] | 3960 ± 894 nM | 20 | 290.3 | 553 ± 152 nM | 145 | 40.6 | 39 ± 18 nM | 2036 | 2.9 | 94.2 | 5880 ± 2520 nM | 431.5 | 14 ± 6 nM | 1.0 | 26 ± 5 nM | 1.9 | 13900 ± 9320 nM | 1018 | 80300 ± 31300 nM | 200 ± 28 nM | EC50 [4]: 1280 ± 489 nM; SI Y181C [4]: 63; SI F227L + V106A [5]: 14; SI IIIB (wild-type HIV-1 (IIIB)): 5890; SI K103N [6]: 3110; SI RES056 [7]: 6; melting point: 134 to 136 °C
5 | Cc1cc(/C=C/C#N)cc(C)c1Oc1nc(Nc2ccc(B3OC(C)(C)C(C)(C)O3)cc2)nc2ccsc12 [Compound 4a, (E)-3-(3,5-Dimethyl-4-((2-((4-(4,4,5,5-tetramethyl-1,3,2-dioxaborolan-2-yl)phenyl)amino)thieno [3,2-d]pyrimidin-4-yl)oxy)phenyl)acrylonitrile] | 1610 ± 508 nM | > 148 | – | 186 ± 32 nM | > 1285 | 21.4 | 21 ± 7 nM | > 11,261 | 2.4 | 74.8 | > 1810 nM | 209.7 | 9 ± 2 nM | 1.0 | 5 ± 6 nM | 0.6 | > 238000 nM | > 27516 | > 238000 nM | 167 ± 31 nM | fold more potent than NVP ([2]; L100I EC50, versus NVP): 3.3 fold; SI Y181C [4]: > 368; SI K103N [6]: > 47,170; EC50 [10]: 5 to 648 nM
